Values quoted from earlier work as cited in paper PMC7199283 (Antiviral research, 2020).

Tested on: HBV
Conditions: ref Hu et al., 2013

CC(C)c1ccc(O)c(=O)c(O)c1 [β-thujaplicinol]
accumulation of RNA:DNA heteroduplexes within HBV capsids: dose-dependent accumulation of RNA:DNA heteroduplexes
